Data reported in patent publication US7833698B2, “Method for determining the response to cancer therapy” (Ventana Medical Systems, Inc., priority 2000, dated 2010).

Legend:
Type in all cases: cell-based, human
[1] = test system: MCF7 cells; test: SA-β-Gal staining of drug-treated MCF7 cells; conditions: treated 2-3 days with 50 nM doxorubicin or Taxol, stained 10-11 days after release from the drug
Method: Cells were washed in PBS, fixed for 3-5 minutes at room temperature in 2% formaldehyde and 0.2% glutaraldehyde (or in 3% formaldehyde alone), washed, and incubated at 37° C. in fresh senescence-associated β-Gal (SA-β-Gal) staining solution (1 mg/ml 5-bromo-4-chloro-3-indolyl β-D-galactoside (X-Gal), 20 mg/ml dimethylformamide; 40 mM citric acid/sodium phosphate, pH 6.0; 5 mM potassium ferrocyanide; 5 mM potassium ferricyanide; 150 mM NaCl; 2 mM MgCl2. Staining was evident following 2-4 hours of incubation and maximal staining was reached after in 12-16 hours. To detect lysosomal β-Gal, the staining solution was prepared with citric acid/sodium phosphate at pH 4.0 (Baselga et al., 1999, Proceedings of AACR NCI EORTC International Conference, Abstract 98).
Red and green filters are suitable for practice of the invention. For SA-β-Gal, a green filter (500 nm) is used to determine the total cytoplasmic area stained with red eosin and compared with the blue area stained for SA-β-Gal (600 nm) as determined using a red filter. […] It is recognized that there are various other staining or optical enhancement methods and filtering methods which can be used to optically enhance one particular area or feature over another cell feature (such as Fast green and eosin).
Cellular changes are induced by treatment with moderate doses of doxorubicin and Taxol in breast tumor-derived human cell lines. […]

[2] = test system: MCF7 cells; test: Flow cytometric analysis of drug-treated MCF7 cells; conditions: 50 nM, 2-3 days
Method: Cellular changes are induced by treatment with moderate doses of doxorubicin and Taxol in breast tumor-derived human cell lines. MCF7 cells were treated for 2-3 days with 50 nM doxorubicin or Taxol (doses that induce growth inhibition and cellular death as measured by flow cytometry; as described by, e.g., Dolbeare et al., 1983, Proc. Natl. Acad. Sci. U.S.A. 80:5573-77) and then were stained for SA-β-Gal expression 10-11 days after release from the drug.

[3] = test system: MCF7 cells; test: p53 and p21CIPI/WAF1 immunostaining with image analysis in MCF7 cells; conditions: MCF7 treated for 3 days with doxorubicin
Source text: The expression of proteins associated with senescence or apoptosis are quantitated by image analysis using a suitable primary antibody (such as Ab-2 for p53, or Ab-1 for WAF1, HSP60, or caspase 3), secondary antibody (such as rabbit anti-mouse IgG), and tertiary ABC complex.
Tertiary ABC complexes are visualized by treating the sections with diaminobenizidine (DAB) stain under appropriate conditions. In a second step, the tissue is counterstained with another optical enhancement factor, preferably ethyl green. The resulting preparation has green nuclei with varying degrees of brown diaminobenzidine (DAB) precipitate localized to the nuclei (and indicating the level of expression of p53, p21, p16, WAF1, HSP60, or caspase-3 protein). […] Spectral studies have shown that the ethyl green stain offers good spectral separation from the DAB precipitate of the immunoperoxidase technique such that different features of the image can be readily separated by filtering at two different wavelengths. […]
MCF7 cells were treated for 3 days with doxorubicin and then stained for p53 and p21^CIPI/WAF1 expression. Cells were cultured, stained, and analyzed as described above for SA-β-Gal using appropriate antibodies.

`CC(=O)O[C@H]1C(=O)[C@@]2(C)[C@H]([C@H](OC(=O)c3ccccc3)[C@]3(O)C[C@H](OC(=O)[C@H](O)[C@@H](NC(=O)c4ccccc4)c4ccccc4)C(C)=C1C3(C)C)[C@]1(OC(C)=O)CO[C@@H]1C[C@@H]2O` [Taxol] was tested. Which “Percentage of Cells Expressing SA-β-Gal” value [1] did it give?
Its value is 13%.

And the “Cellular outcome in flow cytometry histogram / SA-β-Gal+ morphology” value [2]?
The value was “apoptosis is evident by the hypodiploid peak”.

Which results are given for `COc1cccc2c1C(=O)c1c(O)c3c(c(O)c1C2=O)C[C@@](O)(C(=O)CO)C[C@@H]3O[C@H]1C[C@H](N)[C@H](O)[C@H](C)O1` [Doxorubicin, doxorubicin]?
Cells stained for p21CIPI/WAF1 (% Cells) [3]: 50.81 ± 6 % Cells; Cells stained for p53 (% Cells) [3]: 23.93 ± 7 % Cells; Percentage of Cells Expressing SA-β-Gal [1]: 24%; Cellular outcome in flow cytometry histogram / SA-β-Gal+ morphology [2]: resulted in senescence and blocks at G1, G2, and G2M
